The values that follow come from patent publication US7902248B2, “Oxime glucokinase activators” (Hoffmann-La Roche Inc., priority 2006, dated 2011).

This experiment has as its target T1, Recombinant human liver GK (GST-GK) (Homo sapiens, UniProt P35557).
T1 construct: made in house; host or cells: E. coli
T1 sequence (P35557 1-466 isoform P35557-2): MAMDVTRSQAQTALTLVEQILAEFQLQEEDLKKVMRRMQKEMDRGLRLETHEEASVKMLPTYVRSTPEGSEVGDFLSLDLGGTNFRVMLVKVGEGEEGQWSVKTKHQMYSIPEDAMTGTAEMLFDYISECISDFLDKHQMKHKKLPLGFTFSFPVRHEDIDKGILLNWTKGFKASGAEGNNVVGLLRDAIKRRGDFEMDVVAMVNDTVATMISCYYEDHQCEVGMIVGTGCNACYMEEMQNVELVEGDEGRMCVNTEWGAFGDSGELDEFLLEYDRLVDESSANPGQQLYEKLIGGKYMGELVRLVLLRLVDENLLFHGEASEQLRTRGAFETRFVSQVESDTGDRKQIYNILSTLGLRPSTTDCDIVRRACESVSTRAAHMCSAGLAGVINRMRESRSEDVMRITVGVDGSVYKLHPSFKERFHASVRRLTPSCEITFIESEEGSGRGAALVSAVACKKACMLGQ
Nature of the experiment: In vitro glucokinase activity assay (G6PDH-coupled NADH generation, OD 340 nm). The following applies: concentration of activator that produced a 50% increase in the activity of GK; 5 mM D-glucose, 25° C.-30° C., pH 7.1. Type of experiment: biochemical. The protocol:
Glucokinase In Vitro Assay Protocol. Glucokinase (GK) was assayed by coupling the production of glucose-6-phosphate to the generation of NADH with glucose-6-phosphate dehydrogenase (G6PDH, Roche) from Leuconostoc mesenteroides as the coupling enzyme (Scheme 2).
Recombinant human liver GK was expressed in E. coli as a glutathione S-transferase fusion protein (GST-GK) [Liang et al, 1995] and was purified by chromatography over a glutathione-Sepharose 4B affinity column using the procedure provided by the manufacturer (Amersham Pharmacia Biotech, Piscataway, N.J.).
The assay was conducted at 25° C.-30° C. in a flat bottom 96-well tissue culture plate from Costar (Cambridge, Mass.) with a final incubation volume of 120 μL. The incubation reaction contained the following: 25 mM Hepes buffer (pH 7.1), 25 mM KCl, 5 mM D-glucose, 1 mM ATP, 1.8 mM NAD, 2 mM MgCl2, 1 μM sorbitol-6-phosphate, 1 mM dithiothreitol, test drug or 10% DMSO, 1.8 unit/ml G6PDH, and GK (see below). All organic reagents were >98% pure and were from Roche with the exceptions of D-glucose and Hepes which were from Sigma Chemical Co, St Louis, Mo. Test compounds were dissolved in DMSO and were added to the incubation reaction minus GST-GK in a volume of 12 μL to yield a final DMSO concentration of 10%. This mix was pre-incubated in the temperature controlled chamber of a SPECTRAmax 250 microplate spectrophotometer (Molecular Devices Corporation, Sunnyvale, Calif.) for 10 minutes to allow temperature equilibrium and then the reaction was started by the addition of 20 μL GST-GK.
After addition of enzyme, the increase in optical density (OD) at 340 nm was monitored over a 15 minute incubation period as a measure of GK activity. The GK activity in control wells (mOD/min) was compared with the activity in wells containing test GK activators (mOD/min), and the concentration of activator that produced a 50% increase in the activity of GK, i.e., the SC1.5, was calculated.

For the compound `CC(C)O/N=C(/C(=O)Nc1nc2ccccc2s1)c1ccc(S(C)(=O)=O)c(Cl)c1` [Example 7, (E)-N-Benzothiazol-2-yl-2-(3-chloro-4-methanesulfonyl-phenyl)-2-isopropoxyimino-acetamide], the SC1.5 is 0.79 µM.

Turning to `O=C(Nc1nc2ccccc2s1)/C(=N/OC1CCCC1)c1ccc(Cl)c(Cl)c1` [Example 19, (E)-N-Benzothiazol-2-yl-2-cyclopentyloxyimino-2-(3,4-dichloro-phenyl)-acetamide], the SC1.5 worked out at 29 µM.

Consider `Cc1nsc(NC(=O)/C(=N/OC2CCCCC2)c2ccc(S(C)(=O)=O)c(Cl)c2)n1` [Example 10, (E)-2-(3-Chloro-4-methanesulfonyl-phenyl)-2-cyclohexyloxyimino-N-(3-methyl-[1,2,4]thiadiazol-5-yl)-acetamide], for which the SC1.5 amounted to 8.4 µM.

For the compound `CC(C)CO/N=C(/C(=O)Nc1nc2ccccc2s1)c1ccc(S(C)(=O)=O)c(Cl)c1` [Example 25, (E)-N-Benzothiazol-2-yl-2-(3-chloro-4-methanesulfonyl-phenyl)-2-isobutoxyimino-acetamide], the SC1.5 came out at 1.6 µM.

As to `CS(=O)(=O)c1ccc(/C(=N\OC2CCCC2)C(=O)Nc2ccn(Cc3cccnc3)n2)cc1Cl` [Example 31, (E)-2-(3-Chloro-4-methanesulfonyl-phenyl)-2-cyclopentyloxyimino-N-(1-pyridin-3-ylmethyl-1H-pyrazol-3-yl)-acetamide], the SC1.5 amounted to 0.35 µM.

`CS(=O)(=O)c1ccc(/C(=N\OC2CCCCC2)C(=O)Nc2ncc(C(N)=O)s2)cc1Cl` [Example 12, (E)-2-[2-(3-Chloro-4-methanesulfonyl-phenyl)-2-cyclohexyloxyimino-acetylamino]-thiazole-5-carboxylic acid amide]: the SC1.5 amounted to 1.1 µM.

`CS(=O)(=O)c1ccc(/C(=N\OC2CCCC2)C(=O)Nc2nc3ccc(Cl)cc3s2)cc1Cl` [Example 23, (E)-N-(6-Chloro-benzothiazol-2-yl)-2-(3-chloro-4-methanesulfonyl-phenyl)-2-cyclopentyloxyimino-acetamide]: the SC1.5 was 2.8 µM.

As for `CC(C)CO/N=C(/C(=O)Nc1ccn(C)n1)c1ccc(S(C)(=O)=O)c(Cl)c1` [Example 24, (E)-2-(3-Chloro-4-methanesulfonyl-phenyl)-2-isobutoxyimino-N-(1-methyl-1H-pyrazol-3-yl)-acetamide], the SC1.5 was 5.3 µM.

Turning to `CS(=O)(=O)c1ccc(/C(=N\OC2CCCC2)C(=O)Nc2nc3ccccc3s2)cc1Cl` [Example 14, (E)-N-Benzothiazol-2-yl-2-(3-chloro-4-methanesulfonyl-phenyl)-2-cyclopentyloxyimino-acetamide], the SC1.5 turned out to be 0.26 µM.

For the compound `Cn1ccc(NC(=O)/C(=N/OC2CCCCC2)c2ccc(S(C)(=O)=O)c(Cl)c2)n1` [Example 9, (E)-2-(3-Chloro-4-methanesulfonyl-phenyl)-2-cyclohexyloxyimino-N-(1-methyl-1H-pyrazol-3-yl)-acetamide], the SC1.5 came to 12 µM.
